Measurements taken from ChEMBL document CHEMBL3352488, “1,3-Dimethyl Benzimidazolones Are Potent, Selective Inhibitors of the BRPF1 Bromodomain” (ACS Med Chem Lett, 2014).
≈ marks a conversion by molar mass, not a printed value. Calls of active or inactive are those of the source. The calls are words filed in the database; no cut-off is given here.

Experiments:
[1] = target: Bromodomain-containing protein 4 (Homo sapiens, UniProt O60885, Y390A); experiment: Binding affinity to 6His-tagged-BRD4 BD1 Y390A mutant (1 to 477 aa) (unknown origin) by TR-FRET competitive assay
[2] = Aqueous solubility of the compound in DMSO/phosphate buffered saline at pH7.4 by chemiluminescent nitrogen detection method; format: physicochemical; settings: pH 7.4
[3] = Permeability of the compound across artificial lipid membrane; format: ADME; settings: not told; read-out: permeability
[4] = target: Bromodomain-containing protein 4 (Homo sapiens) (UniProt O60885); experiment: Binding affinity to His-tagged-BRD4 BD1 (1 to 477 aa) (unknown origin) by STD-NMR analysis
[5] = target: Bromodomain-containing protein 4 (Homo sapiens) (UniProt O60885); experiment: Binding affinity to His-tagged-BRD4 BD1 (1 to 477 aa) (unknown origin) by STD-NMR analysis in presence of GW841819

SMILES | IC50 [1] | also measured
COc1cccc(C(=O)Nc2cc3c(cc2C)n(C)c(=O)n3C)c1 | > 50.1 µM | 
COc1ccccc1C(=O)Nc1ccc2c(c1)n(C)c(=O)n2C | > 50.1 µM | 
COc1ccccc1C(=O)Nc1cc2c(cc1N1CCCCC1)n(C)c(=O)n2C |  | solubility kinetic [2]: 25 µM (≈ 9.86 µg/mL); Papp [3]: 350 nm/s

More lines, main results first:

IC50 [1] | SMILES | also measured
2.51 µM | Cc1ccc(S(=O)(=O)Nc2ccc3c(c2)n(C)c(=O)n3C)c(C)c1 | 
15.8 µM | COc1cccc(C(=O)Nc2ccc3c(c2)n(C)c(=O)n3C)c1 | 
79.4 µM | Cn1c(=O)n(C)c2cc(C(N)=O)ccc21 | Activity [4]: Active; Activity [5]: inactive
